Source: paper PMC12163485 (Drug Metabolism and Disposition, 2025)
Values joined by “and” are separate entries in the source; they are usually repeats but may differ in a detail not shown here. Identical values can stand only once. Like-named read-outs stand apart in the source and are kept apart here.

Assays:
[1] = molecular target: T1, human OCTN1 (hOCTN1) (Homo sapiens, UniProt Q9H015); test: Uptake of the extended cocktail by HEK293 cells overexpressing hOCTN1; type: in vitro ADME; conditions: Fig. 6
T1 construct: expressed in transfected cells
T1 sequence (Q9H015 1-551): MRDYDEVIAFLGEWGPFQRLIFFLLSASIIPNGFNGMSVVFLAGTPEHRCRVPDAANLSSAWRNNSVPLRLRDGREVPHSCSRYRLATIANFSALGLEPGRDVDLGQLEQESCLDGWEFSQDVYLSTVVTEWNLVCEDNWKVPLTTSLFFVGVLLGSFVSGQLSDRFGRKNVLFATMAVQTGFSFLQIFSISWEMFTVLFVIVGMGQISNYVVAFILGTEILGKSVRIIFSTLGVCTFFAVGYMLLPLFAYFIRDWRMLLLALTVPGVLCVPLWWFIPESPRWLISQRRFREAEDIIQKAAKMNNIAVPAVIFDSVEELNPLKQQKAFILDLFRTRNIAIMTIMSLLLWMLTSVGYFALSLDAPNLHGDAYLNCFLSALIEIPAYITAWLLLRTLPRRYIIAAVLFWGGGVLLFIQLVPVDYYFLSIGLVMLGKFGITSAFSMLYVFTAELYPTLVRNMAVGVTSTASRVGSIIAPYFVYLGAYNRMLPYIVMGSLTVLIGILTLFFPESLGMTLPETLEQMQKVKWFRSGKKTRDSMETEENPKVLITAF

[2] = molecular target: T2, human OCTN2 (hOCTN2) (Homo sapiens, UniProt O76082); test: Uptake of the extended cocktail by HEK293 cells overexpressing hOCTN2; type: in vitro ADME; conditions: Fig. 6
T2 construct: expressed in transfected cells
T2 sequence (O76082 1-557): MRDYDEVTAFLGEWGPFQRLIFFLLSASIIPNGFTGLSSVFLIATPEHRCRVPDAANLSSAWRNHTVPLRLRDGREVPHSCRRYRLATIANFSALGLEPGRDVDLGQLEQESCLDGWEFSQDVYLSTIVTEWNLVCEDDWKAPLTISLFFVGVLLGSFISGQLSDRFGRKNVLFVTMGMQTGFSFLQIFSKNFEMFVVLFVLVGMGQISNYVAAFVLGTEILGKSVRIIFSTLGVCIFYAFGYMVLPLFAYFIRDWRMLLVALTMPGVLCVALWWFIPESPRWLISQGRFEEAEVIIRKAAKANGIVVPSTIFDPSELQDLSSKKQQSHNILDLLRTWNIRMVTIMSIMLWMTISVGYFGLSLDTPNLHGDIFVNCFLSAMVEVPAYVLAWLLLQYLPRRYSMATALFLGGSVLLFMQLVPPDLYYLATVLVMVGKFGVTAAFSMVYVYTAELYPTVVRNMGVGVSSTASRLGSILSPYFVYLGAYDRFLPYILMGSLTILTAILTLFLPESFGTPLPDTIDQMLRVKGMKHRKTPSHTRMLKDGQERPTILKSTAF

[3] = tested on: mOct1; set-up: method as in ref column References of Table 2 (Morse et al, 2020; Jensen et al, 2020; Meyer et al, 2022); conditions: literature values; References of Table 2 (Morse et al, 2020; Jensen et al, 2020; Meyer et al, 2022); cited from earlier work
[4] = Pharmacokinetic parameters used for estimating the potential for DDIs; type: in vivo, human; conditions: for Imax, portal: Iin,max=Imax+Fa×ka×D/Qh, Qh 97 L/h, Fa 1, Imax for fenoterol and ipratropium; for ka: first-order absorption rate constant, calculated manually from available pharmacokinetic parameters
Procedure: (§1) Ka was calculated manually based on available pharmacokinetic parameters.

[5] = molecular target: T3, human OCT1 (hOCT1) (Homo sapiens, UniProt O15245); test: Inhibition of OCT1-mediated uptake of the cocktail substrates in HEK293 cells overexpressing human OCT1; conditions: for IC50: human OCT1, mean ± SD
T3 sequence (O15245 1-554): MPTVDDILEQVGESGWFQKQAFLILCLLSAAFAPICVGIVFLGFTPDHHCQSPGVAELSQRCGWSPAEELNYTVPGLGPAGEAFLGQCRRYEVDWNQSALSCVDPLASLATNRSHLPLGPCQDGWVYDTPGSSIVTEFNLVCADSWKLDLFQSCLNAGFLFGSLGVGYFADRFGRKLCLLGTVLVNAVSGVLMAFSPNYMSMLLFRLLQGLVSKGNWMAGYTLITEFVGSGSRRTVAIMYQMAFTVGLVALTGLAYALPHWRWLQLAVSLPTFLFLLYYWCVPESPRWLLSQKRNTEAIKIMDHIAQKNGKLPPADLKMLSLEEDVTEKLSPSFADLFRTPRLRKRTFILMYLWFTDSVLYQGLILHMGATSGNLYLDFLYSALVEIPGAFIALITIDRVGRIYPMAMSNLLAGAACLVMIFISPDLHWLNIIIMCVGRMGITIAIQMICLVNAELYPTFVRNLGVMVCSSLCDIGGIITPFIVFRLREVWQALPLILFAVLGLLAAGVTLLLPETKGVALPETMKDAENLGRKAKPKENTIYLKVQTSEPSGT

[6] = molecular target: T4, OCT1 (Homo sapiens, UniProt O15245); test: DDI risk R calculated from IC50 at human OCT1; conditions: R=1+fup×Iin,max/IC50, cutoff R ≥ 1.1
T4 sequence (O15245 1-554): T3 sequence (O15245 1-554)

[7] = molecular target: T3, human OCT1 (hOCT1); set-up: expressed in transfected cells; empty vector control pcDNA5; method as in ref column References of Table 2 (Tzvetkov et al, 2018; Morse et al, 2020; Jensen et al, 2020; Meyer et al, 2019, 2022; Wittern et al, 2024 and own unpublished data; Elsby et al, 2017); conditions: literature values; References of Table 2 (Tzvetkov et al, 2018; Morse et al, 2020; Jensen et al, 2020; Meyer et al, 2019, 2022; Wittern et al, 2024 and own unpublished data; Elsby et al, 2017); cited from earlier work
[8] = molecular target: T4, OCT1; test: Uptake of the cocktail by HEK293 cells overexpressing human OCT1
Procedure: (§2) Significance was calculated using Mann–Whitney U test. n = 5–8 independent experiments.

[9] = molecular target: T3, human OCT1 (hOCT1)
[10] = molecular target: T5, mouse OCT1 (Mus musculus, UniProt O08966); test: Uptake of the cocktail by HEK293 cells overexpressing mouse Oct1; conditions: fold change to the negative control, n = 12
T5 sequence (O08966 1-556): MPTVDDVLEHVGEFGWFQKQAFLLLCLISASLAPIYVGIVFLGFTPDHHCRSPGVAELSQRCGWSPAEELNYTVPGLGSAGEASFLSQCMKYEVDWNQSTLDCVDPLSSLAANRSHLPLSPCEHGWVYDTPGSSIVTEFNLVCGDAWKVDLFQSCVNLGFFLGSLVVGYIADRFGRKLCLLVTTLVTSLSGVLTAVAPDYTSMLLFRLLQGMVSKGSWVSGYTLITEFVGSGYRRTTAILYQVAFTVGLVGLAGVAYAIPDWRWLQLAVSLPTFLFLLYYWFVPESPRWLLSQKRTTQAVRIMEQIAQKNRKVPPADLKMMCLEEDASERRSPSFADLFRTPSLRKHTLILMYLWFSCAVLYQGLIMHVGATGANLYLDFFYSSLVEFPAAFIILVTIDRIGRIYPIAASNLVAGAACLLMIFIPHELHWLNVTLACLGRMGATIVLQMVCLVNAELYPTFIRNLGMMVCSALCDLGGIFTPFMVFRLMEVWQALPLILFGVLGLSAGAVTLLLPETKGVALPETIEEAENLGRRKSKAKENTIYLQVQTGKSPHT
Procedure: as §2

[11] = cited from earlier work; for cmax = Imax: dose and route as in Supplemental Table 4, ref Hardman, 2018, fenoterol Tzvetkov et al; for cmax = Imax / fraction unbound: ipratropium Zhang et al, 2023; for fraction unbound: fraction unbound in plasma, ref Hardman, 2018, Lombardo et al (2018), fenoterol Tzvetkov et al; for tmax: p.o., ref Hardman, 2018
[12] = molecular target: T6, human OCT2 (hOCT2) (Homo sapiens, UniProt O15244); test: Uptake of the extended cocktail by HEK293 cells overexpressing hOCT2; type: in vitro ADME; conditions: Fig. 6
T6 construct: expressed in transfected cells
T6 sequence (O15244 1-555): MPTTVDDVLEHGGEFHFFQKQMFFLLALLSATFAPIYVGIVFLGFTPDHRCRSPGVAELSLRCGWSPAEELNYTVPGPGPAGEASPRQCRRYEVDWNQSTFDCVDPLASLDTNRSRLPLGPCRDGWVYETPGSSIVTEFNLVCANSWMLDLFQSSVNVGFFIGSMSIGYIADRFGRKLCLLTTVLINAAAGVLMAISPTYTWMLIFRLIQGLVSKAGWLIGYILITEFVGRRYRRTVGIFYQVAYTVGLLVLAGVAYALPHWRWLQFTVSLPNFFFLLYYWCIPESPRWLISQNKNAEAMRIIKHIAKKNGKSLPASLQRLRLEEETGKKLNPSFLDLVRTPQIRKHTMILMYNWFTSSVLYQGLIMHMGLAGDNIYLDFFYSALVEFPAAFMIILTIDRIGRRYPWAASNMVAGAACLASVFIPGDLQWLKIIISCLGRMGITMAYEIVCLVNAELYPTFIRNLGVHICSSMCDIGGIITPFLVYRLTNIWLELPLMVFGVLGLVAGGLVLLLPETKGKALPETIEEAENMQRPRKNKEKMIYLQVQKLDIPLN

[13] = molecular target: T5, mouse OCT1
Procedure: Therefore, the calculation method used for hepatic uptake transporters such as organic anion transporting polypeptide (OATP) 1B1 and OATP1B3 was also applied for OCT1.
as §1

[14] = tested on: OCT1; conditions: read-out: inhibitory potency for metformin uptake via OCT1; substrate metformin; ref Ahlin et al, 2011; Panfen et al, 2019; cited from earlier work

SMILES: C[N+](C)(C)C[C@H](O)CC(=O)[O-] [L-carnitine]
- transport by OCTN1 [1]: transported both L-carnitine and L-ergothioneine
- transport by OCTN2 [2]: transported only L-carnitine

SMILES: O=C(O[C@H]1C[C@H]2CC[C@@H](C1)[N+]21CCCC1)C(O)(c1ccccc1)c1ccccc1 [Trospium, trospium]
- Km [3]: 1.81 µM
- Imax, portal [4]: 89.63 ng/mL
- ka [4]: 0.273 h⁻¹
- k el ([4]; human, in vivo, po, read-out: ke (converted)): 1.94e-05 s⁻¹
- I max, portal, u ([4]; unbound maximum inhibitor concentration at the inlet of the liver): 0.08 µM
- IC50 ([5]; IC50 for inhibition of fenoterol uptake, substrate (victim) fenoterol 0.5 μM in cocktail): 15.8 ± 1.87 µM
- IC50 ([5]; IC50 for inhibition of ipratropium uptake, substrate (victim) ipratropium 0.5 μM in cocktail): 9.37 ± 0.83 µM
- IC50 ([5]; IC50 for inhibition of methylnaltrexone uptake, substrate (victim) methylnaltrexone 1 μM in cocktail): 14.7 ± 1.95 µM
- IC50 ([5]; IC50 for inhibition of sumatriptan uptake, substrate (victim) sumatriptan 0.5 μM in cocktail): 16.8 ± 2.03 µM
- IC50 ([5]; IC50 for inhibition of zolmitriptan uptake, substrate (victim) zolmitriptan 0.5 μM in cocktail): 10 ± 1.59 µM
- DDI risk R, victim drug fenoterol [6]: 1.00
- DDI risk R, victim drug ipratropium [6]: 1.01
- DDI risk R, victim drug metformin [6]: 1.01
- DDI risk R, victim drug methylnaltrexone [6]: 1.01
- DDI risk R, victim drug salbutamol [6]: 1.01
- DDI risk R, victim drug sumatriptan [6]: 1.00
- DDI risk R, victim drug zolmitriptan [6]: 1.01
- Km [7]: 16.1 µM
- human OCT1 uptake [fold change to pcDNA5] ([8]; cocktail, fold change to the negative control, n = 12): 28.6 fold change to pcDNA5
- transport by OCT1 ([8]; extended cocktail, Fig. 6): transported only by OCT1 and OCT2
- IC50 [9]: 12.4 µM and 8.14 µM
- mouse Oct1 uptake [fold change to pcDNA5] [10]: 26.9 fold change to pcDNA5
- cmax = Imax [11]: 5.20 ng/mL
- fraction unbound [11]: 0.33
- tmax [11]: 6.7 h
- t1/2 ([11]; ref Hardman, 2018, fenoterol Tzvetkov et al): 9.9 h
- transport by OCT2 [12]: transported only by OCT1 and OCT2

SMILES: C=C[C@H]1C[N@@]2CC[C@H]1C[C@@H]2[C@@H](O)c1ccnc2ccc(OC)cc12 [Quinidine, quinidine]
- Imax, portal [4]: 6908 ng/mL
- ka [4]: 1.36 h⁻¹
- zolmitriptan uptake inhibited more potently than sumatriptan uptake [5]: 2.9 fold
- DDI risk R, victim drug trospium [13]: 1.23
- IC50 [14]: 7.7 µM
- cmax = Imax [11]: 1300 ng/mL
- fraction unbound [11]: 0.13
- tmax [11]: 2.00 h
